The results in this text go back to patent US20260226470A1, “HEPATITIS B COMBINATION THERAPIES” (Aligos Therapeutics, Inc., priority 2023, published 2026).

The test system of data set [1] is HBV. Put plainly: siRNA treatment followed by CAM add-on, in vivo in mice, Example 3. The note with it: FIGS. 13A-13B, 16A-16B; CAM 30 mpk BID day 63-98; siRNA-2 10 mpk SC QW day 0-98. How it is done:
In the following example, initial treatment with an siRNA, followed by CAM add-on, was tested in vivo in mice.
The study design is described below in Table 9.
QW dosing of siRNA-2 was continued until the end of the study (day 98). HBV DNA, HBsAg, and HBeAg were measured weekly through day 98.

Data set [2] has as its system adeno-associated virus-hepatitis B virus (AAV-HBV) mice. Briefly: In vivo compound efficacy in AAV-HBV mice, Example 1 (Compound 1 and siRNA-1). Also noted: species or system Mouse: C57BL/6. Conditions: plasma, follow-up to Day 189. How it is done: In vivo compound efficacy was evaluated in adeno-associated virus-hepatitis B virus (AAV-H-BV) mice. Materials and methods are presented below in tables 1-4. Table F describes the nucleic acid sequences used for siRNA-1, an siRNA. The sequences are described using modified nucleotide annotations found in Table B.
Live Phase Parameters: Based on plasma viral markers levels and body weight, 20 mice were selected and randomized into five groups for treatment. Checks were made for dead and/or moribund animals daily. Overt changes were recorded. Body weight was measured twice weekly during Day 0-97, and once weekly during Day 98-189.
Vehicle (Group 01) and Compound 1 at 55 mg/kg/dose (Groups 02, 04 and 05) were administered by oral gavage twice daily during Day 0-97. siRNA-1 at 5 mg/kg/dose was injected subcutaneously on Days 0, 14, 42 and 70 for Groups 03 and 04, and on Days 70, 84, and 102 for Group 05.
Plasma samples of 50 μL per mouse were prepared once weekly prior to dosing during Day 0-189. The samples were used for quantitative detections of HBsAg, HBeAg, and HBV DNA. Mice were sacrificed on Day 189.

Oligonucleotides are written 5' to 3', each unit as a sugar letter and its base; * is a phosphorothioate linkage, no mark a phosphodiester; rarer units and linkages stand in square brackets, end groups in braces. Plain capitals give the bases only. m = 2'-O-methyl; f = 2'-fluoro

For the compound `C=C[C@H](C)Nc1nc2c(c(=O)n1-c1ccc(C(=O)NC)cc1)C[C@@H](C)N(C(=O)c1ccc(Br)c(C(F)(F)F)c1)C2` [Compound 2, 4-((R)-7-(4-bromo-3-(trifluoromethyl)benzoyl)-2-(((S)-but-3-en-2-yl)amino)-6-methyl-4-oxo-5,6,7,8-tetrahydropyrido[3,4-d]pyrimidin-3(4H)-yl)-N-methylbenzamide], the “reduction of HBV DNA” value in data set [1] is “good reduction of HBV DNA”.

As to “siRNA-1: siRNA with SEQ ID NO: 2 (Sense) and SEQ ID NO: 3 (Antisense), modified nucleotides per Table B (sense mC*mC*mGmUfGmUfGfCfAmCmUmUmCmGmCmUmUmCmA; antisense mU*fG*mAmAfGmCmGfAmAmGmUmGmCfAmCmAfCmGmG*mU*mC)”, the “HBsAg effect after end of treatment (sustained or rebound)” value in data set [2] (FIGS. 3A-3B) was “rebound is observed”. Also, the “HBeAg effect after end of treatment (sustained or rebound)” value in data set [2] (FIGS. 4A-4B) is “rebound is observed”.
